Experiment: xn = mol fraction of the nth substance listed
Settings: 101 kPa

Work on CCC[N+]1(C)CCCC1.O=S(=O)([N-]S(=O)(=O)C(F)(F)F)C(F)(F)F + CCCC[N+]1(C)CCCC1.O=S(=O)([N-]S(=O)(=O)C(F)(F)F)C(F)(F)F yielded an electrical conductivity (293.15 K, x2 = 0) of 0.32 S/m, an electrical conductivity (293.15 K, x2 = 0.5) of 0.298 S/m and a viscosity (293.15 K, x2 = 0.5) of 87 mPa·s. The electrical conductivity (293.15 K, x2 = 0.75) was 0.261 S/m, the viscosity (293.15 K, x2 = 0.75) was 92 mPa·s and the electrical conductivity (313.15 K, x2 = 0) was 0.678 S/m. The viscosity (313.15 K, x2 = 0) was 34.4 mPa·s, the electrical conductivity (313.15 K, x2 = 0.25) was 0.509 S/m and the viscosity (313.15 K, x2 = 0.25) was 35.9 mPa·s. It also gave an electrical conductivity (313.15 K, x2 = 0.5) of 0.61 S/m, a viscosity (313.15 K, x2 = 0.5) of 37.9 mPa·s and an electrical conductivity (313.15 K, x2 = 0.75) of 0.569 S/m. It also gave a viscosity (313.15 K, x2 = 0.75) of 39.5 mPa·s, an electrical conductivity (333.15 K, x2 = 0.25) of 0.893 S/m and a viscosity (333.15 K, x2 = 0.25) of 19.2 mPa·s. It also gave an electrical conductivity (333.15 K, x2 = 0.5) of 1.03 S/m, a viscosity (333.15 K, x2 = 0.5) of 20 mPa·s and an electrical conductivity (353.15 K, x2 = 0) of 1.76 S/m. For the same molecule, the viscosity (353.15 K, x2 = 0) was 11.6 mPa·s, the electrical conductivity (353.15 K, x2 = 0.25) was 1.39 S/m and the viscosity (353.15 K, x2 = 0.25) was 11.8 mPa·s. The electrical conductivity (353.15 K, x2 = 0.75) was 1.57 S/m and the viscosity (353.15 K, x2 = 0.75) was 12.5 mPa·s.

For CCCCCC[N+]1(C)CCCC1.O=S(=O)([N-]S(=O)(=O)C(F)(F)F)C(F)(F)F + CCC[N+]1(C)CCCC1.O=S(=O)([N-]S(=O)(=O)C(F)(F)F)C(F)(F)F, the electrical conductivity (293.15 K, x1 = 0.25) was 0.268 S/m, the viscosity (293.15 K, x1 = 0.25) was 89 mPa·s and the electrical conductivity (293.15 K, x1 = 0.5) was 0.185 S/m. For the same molecule, the viscosity (293.15 K, x1 = 0.5) was 102 mPa·s, the electrical conductivity (293.15 K, x1 = 0.75) was 0.111 S/m and the viscosity (293.15 K, x1 = 0.75) was 116 mPa·s. The electrical conductivity (293.15 K, x1 = 1) was 0.118 S/m, the electrical conductivity (313.15 K, x1 = 0.5) was 0.417 S/m and the viscosity (313.15 K, x1 = 0.5) was 42.9 mPa·s. It also gave an electrical conductivity (313.15 K, x1 = 0.75) of 0.251 S/m, a viscosity (313.15 K, x1 = 0.75) of 47.3 mPa·s and an electrical conductivity (313.15 K, x1 = 1) of 0.272 S/m. It also gave a viscosity (313.15 K, x1 = 1) of 52.7 mPa·s, an electrical conductivity (333.15 K, x1 = 0.25) of 1.02 S/m and a viscosity (333.15 K, x1 = 0.25) of 20.6 mPa·s. For the same molecule, the electrical conductivity (333.15 K, x1 = 0.5) was 0.766 S/m, the viscosity (333.15 K, x1 = 0.5) was 22.2 mPa·s and the electrical conductivity (333.15 K, x1 = 0.75) was 0.463 S/m. It also gave a viscosity (333.15 K, x1 = 0.75) of 23.8 mPa·s, an electrical conductivity (333.15 K, x1 = 1) of 0.525 S/m and a viscosity (333.15 K, x1 = 1) of 25.9 mPa·s. For the same molecule, the electrical conductivity (353.15 K, x1 = 0.25) was 1.54 S/m, the viscosity (353.15 K, x1 = 0.25) was 12.6 mPa·s and the electrical conductivity (353.15 K, x1 = 0.75) was 0.724 S/m. For the same molecule, the viscosity (353.15 K, x1 = 0.75) was 13.9 mPa·s, the electrical conductivity (353.15 K, x1 = 1) was 0.86 S/m and the viscosity (353.15 K, x1 = 1) was 14.9 mPa·s.

For CCC[N+]1(C)CCCC1.O=S(=O)([N-]S(=O)(=O)C(F)(F)F)C(F)(F)F + CCCCCCCCCCCCCC[P+](CCCCCC)(CCCCCC)CCCCCC.O=S(=O)([N-]S(=O)(=O)C(F)(F)F)C(F)(F)F, the electrical conductivity (293.15 K, x2 = 0) was 0.32 S/m, the electrical conductivity (293.15 K, x2 = 0.5) was 0.0216 S/m and the viscosity (293.15 K, x2 = 0.5) was 322 mPa·s. For the same molecule, the electrical conductivity (293.15 K, x2 = 0.75) was 0.0113 S/m, the viscosity (293.15 K, x2 = 0.75) was 368 mPa·s and the electrical conductivity (313.15 K, x2 = 0) was 0.678 S/m. For the same molecule, the viscosity (313.15 K, x2 = 0) was 34.5 mPa·s, the electrical conductivity (313.15 K, x2 = 0.5) was 0.0565 S/m and the viscosity (313.15 K, x2 = 0.5) was 117 mPa·s. The electrical conductivity (333.15 K, x2 = 0) was 1.18 S/m, the viscosity (333.15 K, x2 = 0) was 18.8 mPa·s and the electrical conductivity (333.15 K, x2 = 0.5) was 0.12 S/m. For the same molecule, the viscosity (333.15 K, x2 = 0.5) was 51.8 mPa·s, the electrical conductivity (333.15 K, x2 = 0.75) was 0.0688 S/m and the viscosity (333.15 K, x2 = 0.75) was 61.9 mPa·s. For the same molecule, the electrical conductivity (353.15 K, x2 = 0) was 1.76 S/m, the viscosity (353.15 K, x2 = 0) was 11.6 mPa·s and the electrical conductivity (353.15 K, x2 = 0.5) was 0.223 S/m. The viscosity (353.15 K, x2 = 0.5) was 26.7 mPa·s, the electrical conductivity (353.15 K, x2 = 0.75) was 0.146 S/m and the viscosity (353.15 K, x2 = 0.75) was 29.2 mPa·s.

With CCCC[N+]1(C)CCCC1.O=S(=O)([N-]S(=O)(=O)C(F)(F)F)C(F)(F)F + CCC[N+]1(C)CCCC1.O=S(=O)([N-]S(=O)(=O)C(F)(F)F)C(F)(F)F the electrical conductivity (293.15 K, x1 = 1) was 0.222 S/m, the electrical conductivity (313.15 K, x1 = 1) was 0.471 S/m and the viscosity (313.15 K, x1 = 1) was 42 mPa·s. It also gave an electrical conductivity (333.15 K, x1 = 1) of 0.827 S/m, a viscosity (333.15 K, x1 = 1) of 21.7 mPa·s and an electrical conductivity (353.15 K, x1 = 1) of 1.23 S/m. For the same molecule, the viscosity (353.15 K, x1 = 1) was 12.9 mPa·s.

CCCCCCCCCCCCCC[P+](CCCCCC)(CCCCCC)CCCCCC.O=S(=O)([N-]S(=O)(=O)C(F)(F)F)C(F)(F)F + CCC[N+]1(C)CCCC1.O=S(=O)([N-]S(=O)(=O)C(F)(F)F)C(F)(F)F gave an electrical conductivity (293.15 K, x1 = 1) of 0.0072 S/m, an electrical conductivity (313.15 K, x1 = 1) of 0.0216 S/m and a viscosity (313.15 K, x1 = 1) of 150 mPa·s. The electrical conductivity (333.15 K, x1 = 1) was 0.0473 S/m, the viscosity (333.15 K, x1 = 1) was 63 mPa·s and the electrical conductivity (353.15 K, x1 = 1) was 0.0913 S/m. The viscosity (353.15 K, x1 = 1) was 31.1 mPa·s.

CCC[N+]1(C)CCCC1.O=S(=O)([N-]S(=O)(=O)C(F)(F)F)C(F)(F)F + CCC[N+]1(C)CCCC1.N#C[N-]C#N showed an electrical conductivity (293.15 K, x2 = 0) of 0.32 S/m, an electrical conductivity (333.15 K, x2 = 0) of 1.18 S/m and a viscosity (333.15 K, x2 = 0) of 18.8 mPa·s.

Molecule CCC[N+]1(C)CCCC1.N#C[N-]C#N + CCC[N+]1(C)CCCC1.O=S(=O)([N-]S(=O)(=O)C(F)(F)F)C(F)(F)F has an electrical conductivity (293.15 K, x1 = 0.25) of 0.44 S/m, a viscosity (293.15 K, x1 = 0.25) of 63.1 mPa·s and an electrical conductivity (293.15 K, x1 = 0.5) of 0.733 S/m. It also gave a viscosity (293.15 K, x1 = 0.5) of 51 mPa·s, an electrical conductivity (293.15 K, x1 = 0.75) of 0.982 S/m and a viscosity (293.15 K, x1 = 0.75) of 44.9 mPa·s. It also gave an electrical conductivity (293.15 K, x1 = 1) of 1.57 S/m, an electrical conductivity (313.15 K, x1 = 0.25) of 0.842 S/m and a viscosity (313.15 K, x1 = 0.25) of 29.7 mPa·s. For the same molecule, the electrical conductivity (313.15 K, x1 = 0.5) was 1.34 S/m, the viscosity (313.15 K, x1 = 0.5) was 25.3 mPa·s and the electrical conductivity (313.15 K, x1 = 0.75) was 1.75 S/m. For the same molecule, the viscosity (313.15 K, x1 = 0.75) was 21.6 mPa·s, the electrical conductivity (313.15 K, x1 = 1) was 2.67 S/m and the viscosity (313.15 K, x1 = 1) was 18.6 mPa·s. It also gave an electrical conductivity (333.15 K, x1 = 0.5) of 2.16 S/m, a viscosity (333.15 K, x1 = 0.5) of 14.8 mPa·s and an electrical conductivity (333.15 K, x1 = 1) of 4.44 S/m. It also gave a viscosity (333.15 K, x1 = 1) of 11.7 mPa·s, a viscosity (353.15 K, x1 = 0.25) of 10.4 mPa·s and a viscosity (353.15 K, x1 = 0.5) of 9.58 mPa·s. The viscosity (353.15 K, x1 = 0.75) was 8.66 mPa·s and the viscosity (353.15 K, x1 = 1) was 7.95 mPa·s.

In the case of CC[n+]1ccn(C)c1.O=S(=O)([N-]S(=O)(=O)C(F)(F)F)C(F)(F)F + CCC[N+]1(C)CCCC1.O=S(=O)([N-]S(=O)(=O)C(F)(F)F)C(F)(F)F, the electrical conductivity (293.15 K, x1 = 1) is reported as 0.752 S/m, the electrical conductivity (313.15 K, x1 = 1) is reported as 1.35 S/m and the viscosity (313.15 K, x1 = 1) is reported as 19.9 mPa·s. The electrical conductivity (333.15 K, x1 = 1) was 2.1 S/m, the viscosity (333.15 K, x1 = 1) was 12 mPa·s and the electrical conductivity (353.15 K, x1 = 1) was 3.05 S/m. The viscosity (353.15 K, x1 = 1) was 7.97 mPa·s.

In the case of CCC[N+]1(C)CCCC1.O=S(=O)([N-]S(=O)(=O)C(F)(F)F)C(F)(F)F + CCCCCC[N+]1(C)CCCC1.O=S(=O)([N-]S(=O)(=O)C(F)(F)F)C(F)(F)F, the electrical conductivity (293.15 K, x2 = 0) is reported as 0.32 S/m, the electrical conductivity (313.15 K, x2 = 0) is reported as 0.678 S/m and the viscosity (313.15 K, x2 = 0) is reported as 34.4 mPa·s. For the same molecule, the electrical conductivity (333.15 K, x2 = 0) was 1.18 S/m and the viscosity (333.15 K, x2 = 0) was 18.8 mPa·s.

In the case of CCC[N+]1(C)CCCC1.O=S(=O)([N-]S(=O)(=O)C(F)(F)F)C(F)(F)F + CC[n+]1ccn(C)c1.O=S(=O)([N-]S(=O)(=O)C(F)(F)F)C(F)(F)F, the electrical conductivity (293.15 K, x2 = 0) is reported as 0.32 S/m, the electrical conductivity (293.15 K, x2 = 0.25) is reported as 0.408 S/m and the viscosity (293.15 K, x2 = 0.25) is reported as 63.6 mPa·s. For the same molecule, the electrical conductivity (293.15 K, x2 = 0.75) was 0.633 S/m, the viscosity (293.15 K, x2 = 0.75) was 45 mPa·s and the electrical conductivity (313.15 K, x2 = 0) was 0.678 S/m. It also gave a viscosity (313.15 K, x2 = 0) of 34.4 mPa·s, an electrical conductivity (313.15 K, x2 = 0.25) of 0.801 S/m and a viscosity (313.15 K, x2 = 0.25) of 29.4 mPa·s. The electrical conductivity (313.15 K, x2 = 0.5) was 0.985 S/m, the viscosity (313.15 K, x2 = 0.5) was 25.8 mPa·s and the electrical conductivity (313.15 K, x2 = 0.75) was 1.16 S/m. The viscosity (313.15 K, x2 = 0.75) was 22.6 mPa·s, the electrical conductivity (333.15 K, x2 = 0.25) was 1.34 S/m and the viscosity (333.15 K, x2 = 0.25) was 16.6 mPa·s. It also gave an electrical conductivity (333.15 K, x2 = 0.5) of 1.62 S/m, a viscosity (333.15 K, x2 = 0.5) of 14.9 mPa·s and an electrical conductivity (333.15 K, x2 = 0.75) of 1.85 S/m. The viscosity (333.15 K, x2 = 0.75) was 13.3 mPa·s, the electrical conductivity (353.15 K, x2 = 0.25) was 2 S/m and the viscosity (353.15 K, x2 = 0.25) was 10.5 mPa·s. It also gave an electrical conductivity (353.15 K, x2 = 0.5) of 2.37 S/m, a viscosity (353.15 K, x2 = 0.5) of 9.57 mPa·s and an electrical conductivity (353.15 K, x2 = 0.75) of 2.66 S/m. For the same molecule, the viscosity (353.15 K, x2 = 0.75) was 8.77 mPa·s.
